PubChem BioAssay AID248 (DTP/NCI, 2004)
Values joined by “and” are separate entries in the source; they are usually repeats but may differ in a detail not shown here. Equal entries are not always repeated. Inconclusive results and toxic doses are left out. Rule as the data show it: active = T/C of 150% or more; inactive = T/C below 125%.

System: L1210 leukemia ip in BDF1 mice, survival T/C
Test: NCI In Vivo Anticancer Drug Screen. Data for tumor model L1210 Leukemia (intraperitoneal) in B6D2F1 (BDF1) mice
Settings: endpoint: mean survival time, higher = longer survival
In short: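 Tumor cells were implanted, animals were treated, and survival was followed. The result divides the treated measurement by the vehicle-control measurement.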

[1] = dose: 100.0 mg/kg/injection, schedule: Q04DX002 (ip), vehicle: saline with Tween-80
[2] = dose: 200.0 mg/kg/injection, schedule: Q04DX002 (ip), vehicle: saline with Tween-80
[3] = dose: 400.0 mg/kg/injection, schedule: Q04DX002 (ip), vehicle: saline with Tween-80
[4] = dose: 100.0 mg/kg/injection, schedule: Q01DX001 (ip), vehicle: carboxymethylcellulose (CMC)
[5] = dose: 200.0 mg/kg/injection, schedule: Q01DX001 (ip), vehicle: carboxymethylcellulose (CMC)
[6] = dose: 400.0 mg/kg/injection, schedule: Q01DX001 (ip), vehicle: carboxymethylcellulose (CMC)
[7] = dose: 100.0 mg/kg/injection, schedule: Q01DX009 (ip), vehicle: Klucel (hydroxypropylcellulose) (HPC)
[8] = dose: 400.0 mg/kg/injection, schedule: Q01DX009 (ip), vehicle: Klucel (hydroxypropylcellulose) (HPC)
[9] = dose: 200.0 mg/kg/injection, schedule: Q01DX009 (ip), vehicle: Klucel (hydroxypropylcellulose) (HPC)

Measured: T/C

Cc1ccc(NCC(=O)NN)cc1F
inactive: dose: 25.0 mg/kg/injection, schedule: Q04DX002 (ip), vehicle: Klucel (hydroxypropylcellulose) (HPC) 102 % of control | dose: 50.0 mg/kg/injection, schedule: Q04DX002 (ip), vehicle: Klucel (hydroxypropylcellulose) (HPC) 109 % of control | dose: 100.0 mg/kg/injection, schedule: Q04DX002 (ip), vehicle: Klucel (hydroxypropylcellulose) (HPC) 109 % of control and 112 % of control

Cc1cc(O)c(C)c(C)c1N=Nc1ccccc1
inactive: dose: 100.0 mg/kg/injection, schedule: Q01DX009 (ip), vehicle: saline with Tween-80 101 % of control | [1] 108 % of control | dose: 200.0 mg/kg/injection, schedule: Q01DX009 (ip), vehicle: saline with Tween-80 89 % of control | [2] 90 % of control | dose: 400.0 mg/kg/injection, schedule: Q01DX009 (ip), vehicle: saline with Tween-80 95 % of control | [3] 93 % of control

O=c1nc(NO)ccn1C1CCCCO1 (configuration not stated)
inactive: [4] 95 % of control | [5] 95 % of control | [6] 95 % of control

O=C1c2ccccc2C(=O)N1CNc1ccccc1/C(=N/Nc1ccc([N+](=O)[O-])cc1[N+](=O)[O-])c1ccccc1
inactive: [1] 91 % of control | [2] 91 % of control | [3] 94 % of control

COc1cccc2c1C(=O)c1c(O)c3c(c(O)c1C2=O)C[C@@](O)(/C(C)=N/NS(C)(=O)=O)C[C@@H]3OC1CC(N)C(O)C(C)O1 (some centres not stated)
inactive: dose: 0.25 mg/kg/injection, schedule: Q04DX003 (ip), vehicle: water 103 % of control | dose: 0.5 mg/kg/injection, schedule: Q04DX003 (ip), vehicle: water 103 % of control | dose: 1.0 mg/kg/injection, schedule: Q04DX003 (ip), vehicle: water 103 % of control | dose: 2.0 mg/kg/injection, schedule: Q04DX003 (ip), vehicle: water 105 % of control | dose: 4.0 mg/kg/injection, schedule: Q01DX009 (ip), vehicle: water 105 % of control | dose: 4.0 mg/kg/injection, schedule: Q04DX003 (ip), vehicle: water 107 % of control | dose: 8.0 mg/kg/injection, schedule: Q01DX009 (ip), vehicle: water 113 % of control | dose: 8.0 mg/kg/injection, schedule: Q04DX003 (ip), vehicle: water 101 % of control and 113 % of control | dose: 16.0 mg/kg/injection, schedule: Q01DX009 (ip), vehicle: water 121 % of control | dose: 16.0 mg/kg/injection, schedule: Q04DX003 (ip), vehicle: water 104 % of control and 115 % of control | dose: 64.0 mg/kg/injection, schedule: Q01DX009 (ip), vehicle: water 97 % of control

CCOc1ccc([N+](=O)[O-])cc1C1N(Cc2ccccc2OC)CCCN1Cc1ccccc1OC
inactive: [4] 98 % of control | [5] 98 % of control | [6] 104 % of control

CCCCSC(=O)C(O)c1ccccc1 (configuration not stated)
inactive: dose: 100.0 mg/kg/injection, schedule: Q01DX001 (ip), vehicle: saline 105 % of control | dose: 200.0 mg/kg/injection, schedule: Q01DX001 (ip), vehicle: saline 104 % of control | dose: 400.0 mg/kg/injection, schedule: Q01DX001 (ip), vehicle: saline 105 % of control

CC(=O)OC1OC(COC(=O)c2ccccc2)C(OC(=O)c2ccccc2)C1OC(=O)c1ccccc1 (configuration not stated)
inactive: dose: 100.0 mg/kg/injection, schedule: Q01DX001 (ip), vehicle: Klucel (hydroxypropylcellulose) (HPC) 118 % of control and 95 % of control | [7] 92 % of control | dose: 200.0 mg/kg/injection, schedule: Q01DX001 (ip), vehicle: Klucel (hydroxypropylcellulose) (HPC) 97 % of control and 92 % of control | dose: 400.0 mg/kg/injection, schedule: Q01DX001 (ip), vehicle: Klucel (hydroxypropylcellulose) (HPC) 101 % of control and 92 % of control | [8] 92 % of control

O=C(Nc1ccc([N+](=O)[O-])cc1)OCC#CC#CCOC(=O)Nc1ccc([N+](=O)[O-])cc1
inactive: dose: 50.0 mg/kg/injection, schedule: Q01DX009 (ip), vehicle: Klucel (hydroxypropylcellulose) (HPC) 104 % of control | [7] 100 % of control | [9] 86 % of control

O=C1O/C(=C(\C(=O)O)c2ccccc2)C(O)=C1c1ccccc1
inactive: [7] 113 % of control | dose: 100.0 mg/kg/injection, schedule: Q04DX003 (ip), vehicle: Klucel (hydroxypropylcellulose) (HPC) 103 % of control | [9] 101 % of control | dose: 200.0 mg/kg/injection, schedule: Q04DX003 (ip), vehicle: Klucel (hydroxypropylcellulose) (HPC) 97 % of control | [8] 102 % of control | dose: 400.0 mg/kg/injection, schedule: Q04DX003 (ip), vehicle: Klucel (hydroxypropylcellulose) (HPC) 108 % of control

C/C=C1\CCOC1=O
inactive: dose: 100.0 mg/kg/injection, schedule: Q04DX002 (ip), vehicle: saline 94 % of control | dose: 200.0 mg/kg/injection, schedule: Q04DX002 (ip), vehicle: saline 91 % of control | dose: 400.0 mg/kg/injection, schedule: Q04DX002 (ip), vehicle: saline 105 % of control

COC(=O)C1CC[N-]CC1.COC(=O)C1CC[N-]CC1.[Cl][Pt+2][Cl]
inactive: dose: 100.0 mg/kg/injection, schedule: Q04DX003 (ip), vehicle: saline with Tween-80 106 % of control | dose: 200.0 mg/kg/injection, schedule: Q04DX003 (ip), vehicle: saline with Tween-80 106 % of control | dose: 400.0 mg/kg/injection, schedule: Q04DX003 (ip), vehicle: saline with Tween-80 106 % of control
